Data published in patent US7829560B2, “1,4-disubstituted naphthalenes as inhibitors of P38 MAP kinase” (Arqule, Inc., priority 2004, dated 2010).
Several values for one entry are separate records, joined by “and”; a condition that tells them apart may be missing. Identical values can stand only once.

What was measured:
p38α = molecular target: T1, p38α (Homo sapiens, UniProt Q16539); assay: p38 MAP Kinase assay: inhibition of ATF2 phosphorylation, ELISA; format: biochemical; conditions: for IC50: ATF2 phosphorylation, read-out: [ENZ] P38 ALPHA, IC50, ELISA; for inhibition at 10 µM: substrate ATF2, read-out: [ENZ] P38 ALPHA, PCT INH, ELISA (10 uM;ATF2) (Percent)
T1 construct: p38 MAP Kinases are recombinant human full-length proteins with an amino-terminal GST fusion; GST (N); purchased Upstate Biotechnology Inc; host or cells: E. coli
Procedure, shortened: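 In vitro phosphorylation of ATF2 at Thr69 by recombinant human GST-p38 MAP kinase, read by anti-phospho-ATF2 ELISA at 450 nm. Enzyme and compound pre-incubated 15 min at RT, then 30 min reaction at 37 °C with 40 μM ATP and 1.25 μM ATF2; buffer with or without 1% HSA (Method II or I).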

[1] = tested on: TNFα release from THP-1 cells; assay: Inhibition of TNFα release from LPS-stimulated THP-1 cells, ELISA; format: cell-based; conditions: Homo sapiens, THP-1, THP-1 cells, read-out: [CELL] THP-1, IC50, TNF ALPHA, ELISA
Excerpt: Compounds of the invention are screened for the ability to inhibit TNFα and IL-1β release from THP-1 cells stimulated with lipopolysaccharide (LPS) in vitro. The ability of compounds to inhibit TNFα and IL-1β release in this in vitro assay is correlated with the inhibition of p38 activity and TNFα and IL-1β expression in vivo, and is therefore an indicator of potential in vivo therapeutic activity (Lee J. C. et al, Ann. N.Y. Acad. Sci. 696: 149-170, 1993 and Nature, 372: 739-746, 1994).
Materials: THP-1 cells from ATCC (TIB202) are maintained at 37° C., 5% CO2 in RPMI 1640 media (available from MediaTech, Herndon, Va.) containing 4.5 g/L glucose, supplemented with 10% fetal bovine serum, 1% penicillin/streptomycin and 50 μM β-mercaptoethanol.
Methods: Test compounds are initially dissolved in RPMI media with 1% DMSO (v/v). Compounds are then serially diluted in RPMI media for all subsequent dilutions. The assay is performed under sterile conditions. THP-1 cells at a culture density of 6-8×10^5 cells/ml are collected and resuspended in the RPMI media at 10^6 cells/ml containing 10% fetal bovine serum, no serum or 1% human serum albumin (HSA). 100 μl of resuspended cells are added to each well, which contain 100 μl of a test compound. Test compounds are prepared at twice the final concentration. Final DMSO concentration is no more than 0.5% (v/v). Cells are preincubated with compound for 30 minutes at 37° C., 5% CO2 prior to stimulation with lipopolysaccharide (LPS) (Sigma L-2880, 4 mg/ml stock in PBS). The final LPS concentration in each well is 10 or 30 μg/ml for TNFα and IL-1β release, respectively. Unstimulated control cell suspensions receive PBS vehicle only. Cell mixtures are incubated for 18 or 48 hours for TNFα and IL-1β prelease, respectively. 150 μl of supernatants are taken and transferred to a fresh plate and stored at −20° C. until further analysis. TNFα and IL-1β levels are measured using ELISA kits from Biosource (Catalog no. KHC3012 for TNFα; KAC1192 for IL-1β). A SpectraMAX 250 is used as the plate reader. Analysis is performed by non-linear regression to generate a dose response curve. The calculated IC50 value is the concentration of the test compound that causes a 50% decrease in TNFα or IL-1β levels.

T1 sequence (Q16539 whole entry, the tested form may be a part): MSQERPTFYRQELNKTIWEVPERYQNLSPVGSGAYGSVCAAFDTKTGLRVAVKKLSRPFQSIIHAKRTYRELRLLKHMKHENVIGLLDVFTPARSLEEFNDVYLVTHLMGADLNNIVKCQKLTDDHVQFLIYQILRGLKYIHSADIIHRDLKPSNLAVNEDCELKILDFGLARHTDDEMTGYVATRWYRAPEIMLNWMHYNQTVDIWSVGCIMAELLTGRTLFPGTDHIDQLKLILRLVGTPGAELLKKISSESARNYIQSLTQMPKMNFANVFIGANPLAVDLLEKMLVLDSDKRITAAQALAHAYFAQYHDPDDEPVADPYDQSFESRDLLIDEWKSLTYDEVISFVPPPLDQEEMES

| Compound | IC50 (p38α) | IC50 [1] [µM] | inhibition at 10 µM (p38α) [%] |
| --- | --- | --- | --- |
| O=C(Nc1ccc(Oc2ccnc(NC3CCS(=O)(=O)C3)n2)c2ccccc12)c1cc(F)cc(N2CCCCC2)c1 (centres unmarked) [Compound B406] | 0.0196 µM | 0.117 |  |
| O=C(Nc1ccc(OCCN2CCOCC2)c2ccccc12)c1ccc2ccccc2c1 [Compound B85] | 3.18 µM | 4.03 | 66 |
| O=C(Nc1ccc(NCCN2CCOCC2)c2ccccc12)c1cc(F)cc(N2CCCCC2)c1 [Compound B242] | 2.03 µM | 10.6 |  |
| CC1CCN(c2cc(F)cc(C(=O)Nc3ccc(N4CCN(C(=O)OC(C)(C)C)CC4)c4ccccc34)c2)CC1 [Compound B192] | > 10 µM | 4.72 |  |
| O=C(Nc1ccc(OCCN2CCOCC2)c2ccccc12)c1cc(F)cc(N2CCN(c3ccc(F)cc3)CC2)c1 [Compound B203] | > 10 µM | > 10 |  |
| CC1=NCCN1c1nccc(Oc2ccc(NC(=O)c3cc(F)cc(N4CCCCC4)c3)c3ccccc23)n1 [Compound B417, 3-Fluoro-N-(4-{[2-(2-methyl-4,5-dihydro-1 H-imidazol-1-yl)pyrimidin-4-yl]oxy}-1-naphthyl)-5-piperidin-1-ylbenzamide] | 0.0127 µM | 0.336 |  |
| O=C(Nc1ccc(OCCN2CCOCC2)c2ccccc12)c1cc(N2CCOCC2)nc(Cl)n1 [Compound B42, 2-Chloro-6-morpholin-4-yl-pyrimidine-4-carboxylic acid [4-(2-morpholin-4-yl-ethoxy)-naphthalen-1-yl]-amide] | 6.34 µM | > 1 |  |
| O=C(Nc1ccc(OCCN2CCOCC2)c2ccccc12)c1ccnc(N2CCC3(CC2)OCCO3)c1 [Compound B44, 2-(1,4-Dioxa-8-aza-spiro[4.5]dec-8-yl)-N-[4-(2-morpholin-4-yl-ethoxy)-naphthalen-1-yl]-isonicotinamide] | > 10 µM | 1.01 |  |
| CCOc1cccc(-c2cccc(C(=O)Nc3ccc(OCCN4CCOCC4)c4ccccc34)c2)c1 [Compound B286] | > 10 µM | > 10 |  |
| O=C(Nc1ccc(OCCCN2CCC(O)CC2)c2ccccc12)c1cc(F)cc(N2CCCCC2)c1 [Compound B162, 3-Fluoro-N-{4-[3-(4-hydroxy-piperidin-1-yl)-propoxy]-naphthalen-1-yl}-5-piperidin-1-yl-benzamide] | 9.89 µM | > 10 | 59.5 |
| O=C(Nc1ccc(OCCN2CCOCC2)c2ccccc12)c1ccnc(N2CCOCC2)c1 [Compound B122, 2-Morpholin-4-yl-N-[4-(2-morpholin-4-yl-ethoxy)-naphthalen-1-yl]-isonicotinamide] | 3.52 µM | 2.1 | 73.5 |
| Cc1ccc(-c2cccc(C(=O)Nc3ccc(OCCN4CCOCC4)c4ccccc34)c2)cc1C [Compound B276] | > 10 µM | > 10 |  |
| CC1CCN(c2cc(F)cc(C(=O)Nc3ccc(OCCN4CCNC(=O)C4)c4ccccc34)c2)CC1 [Compound B197, 3-Fluoro-5-(4-methyl-piperidin-1-yl)-N-{4-[2-(3-oxo-piperazin-1-yl)-ethoxy]-naphthalen-1-yl}-benzamide] | 1.42 µM | 6.63 |  |
| O=C(Nc1ccc(Oc2ccnc(N3CCC(CO)CC3)n2)c2ccccc12)c1cc(F)cc(N2CCOCC2)c1 [Compound B359] | 0.0042 µM | 0.104 |  |
| O=C(Nc1ccc(OCCN2CCOCC2)c2ccccc12)c1cc(Br)cc(I)c1 [Compound B27] | > 100 µM | > 10 |  |
| O=C(Nc1ccc(NCCN2CCOCC2)c2ccccc12)c1cc(F)cc(N2CCOCC2)c1 [Compound B241] | 8.25 µM | 9.42 |  |
| O=C(Nc1ccc(OCCN2CCSCC2)c2ccccc12)c1cccc(N2CCOCC2)c1 [Compound B20] | 5.55 µM | > 10 | 73.5 |
| CC1CCCN(c2cc(C(=O)Nc3ccc(OCCN4CCOCC4)c4ccccc34)ccn2)C1 (centres unmarked) [Compound B126, 3-Methyl-3,4,5,6-tetrahydro-2 H-[1,2′]bipyridinyl-4′-carboxylic acid [4-(2-morpholin-4-yl-ethoxy)-naphthalen-1-yl]-amide] | 0.451 µM | 0.934 | 85 |

| Compound | IC50 (p38α) | IC50 [1] [µM] | inhibition at 10 µM (p38α) [%] |
| --- | --- | --- | --- |
| C[C@@H]1CN(CCOc2ccc(NC(=O)c3cccc(N4CCOCC4)c3)c3ccccc23)C[C@H](C)O1 [Compound B19] | 8.96 µM | > 10 | 65 |
| O=C(Nc1ccc(Oc2ccnc(NC3CCCC3)n2)c2ccccc12)c1cc(F)cc(N2CCOCC2)c1 [Compound B250, N-(4-{[2-(Cyclopentylamino)pyrimidin-4-yl]oxy}-1-naphthyl)-3-fluoro-5-morpholin-4-ylbenzamide] | 0.0305 µM | 0.042 |  |
| O=C(Nc1ccc(OCCN2CCOCC2)c2ccccc12)c1cccc(-c2ccncc2)c1 [Compound B86, N-[4-(2-Morpholin-4-yl-ethoxy)-naphthalen-1-yl]-3-pyridin-4-yl-benzamide] | 4.16 µM | 2.71 | 67 |
| CC1CCCN1c1cc(C(=O)Nc2ccc(OCCN3CCOCC3)c3ccccc23)ccn1 (centres unmarked) [Compound B130, 2-(2-Methyl-pyrrolidin-1-yl)-N-[4-(2-morpholin-4-yl-ethoxy)-naphthalen-1-yl]-isonicotinamide] | 0.822 µM | 2.34 | 88.5 |
| CC1CN(c2cc(F)cc(C(=O)Nc3ccc(OCCN4CCOCC4)c4ccccc34)c2)CC(C)O1 (centres unmarked) [Compound B211] | > 10 µM | > 10 |  |
| CC1CCN(c2cc(F)cc(C(=O)Nc3ccc(Oc4ccnc(N5CCOCC5)n4)c4ccccc34)c2)CC1 [Compound B265, 3-Fluoro-5-(4-methylpiperidin-1-yl)-N-{4-[(2-morpholin-4-ylpyrimidin-4-yl)oxy]-1-naphthyl}benzamide] | 5.06 µM | 0.765 |  |
| COC(CNc1nccc(Oc2ccc(NC(=O)c3cc(F)cc(N4CCOCC4)c3)c3ccccc23)n1)OC [Compound B357] | 0.003 µM | 0.0301 |  |
| CCOc1ccc(Cl)cc1-c1cccc(C(=O)Nc2ccc(OCCN3CCOCC3)c3ccccc23)c1 [Compound B301] | > 10 µM | > 10 |  |
| O=C(Nc1ccc(OCCN2CCOCC2)c2ccccc12)c1ccnc(N2CCC(O)CC2)c1 [Compound B43, 4-Hydroxy-3,4,5,6-tetrahydro-2 H-[1,2′]bipyridinyl-4′-carboxylic acid [4-(2-morpholin-4-yl-ethoxy)-naphthalen-1-yl]-amide] | > 10 µM | 2.72 |  |
| O=C(Nc1ccc(OCCN2CCC(CO)CC2)c2ccccc12)c1cc(F)cc(N2CCCCC2)c1 [Compound B163, 3-Fluoro-N-{4-[2-(4-hydroxymethyl-piperidin-1-yl)-ethoxy]-naphthalen-1-yl}-5-piperidin-1-yl-benzamide] | 4.84 µM | > 10 | 57 |
| O=C(Nc1ccc(OCCN2CCSCC2)c2ccccc12)c1ccc(CN2CCOCC2)cc1 [Compound B4] | > 100 µM | > 10 |  |
| CN(C)CC(C)(C)CNc1nccc(Oc2ccc(NC(=O)c3cc(F)cc(OC4CCCCC4)c3)c3ccccc23)n1 [Compound B313] | 0.002 µM and 0.0022 µM | 0.0483 |  |
| O=C(Nc1ccc(OCCN2CCOCC2)c2ccccc12)c1cc(N2CCOCC2)ccc1Cl [Compound B41] | > 10 µM | > 10 |  |
| O=C(Nc1ccc(OCCN2CCOCC2)c2ccccc12)c1ccc(N2CCOCC2)cc1 [Compound B29] | > 10 µM | > 10 |  |
| COc1ccccc1-c1cccc(C(=O)Nc2ccc(OCCN3CCOCC3)c3ccccc23)c1 [Compound B90] | 1.33 µM | 5.25 | 78 |
| CCOC(=O)N1CCN(CCOc2ccc(NC(=O)c3ccc(CN4CCOCC4)cc3)c3ccccc23)CC1 [Compound B3] | > 10 µM | > 10 |  |
| CC1CCN(c2cc(C(=O)Nc3ccc(OCCN4CCOCC4)c4ccccc34)cc(Cl)n2)CC1 [Compound B218] | 0.876 µM | 3.58 |  |
